Measured values taken from patent US20090312297A1, “METHODS FOR TREATING HYPERCHOLESTEROLEMIA AND ATHEROSCLEROSIS” (PRESIDENT AND FELLOWS OF HARVARD COLLEGE, priority 2006, published 2009).

Tests used:
Assay type in all cases: in vivo, mouse
[1] = tested on: apoE−/− mice; experiment: Atherosclerotic lesions in aortas (Oil-Red-O staining) of apoE−/− mice on western diet; details: for atherosclerotic lesion area per full aorta: p<0.05 vs. control, FIG. 2(a)
Experimental: (§1) apoE−/− mice (a commonly used model of hypercholesterolemia and atherosclerosis) were purchased from Jackson Labs. At 6 weeks of age, the mice were placed on a western diet (to further increase cholesterol levels and vascular lesions) and treatments with either phosphate buffered saline (PBS) (vehicle) or TUDCA (500 mg/kg/day, single dose, i.p.) were started.
After 3 months of western diet and treatment, mice were sacrificed and aortas were dissected and fixed in 10% buffered formalin and stained with Oil-Red-O which stains lipids.
(§2) apoE−/− mice were purchased from Jackson Labs. At 6 weeks of age, the mice were placed on a western diet and treatments with either phosphate buffered saline (PBS) (vehicle); TUDCA (50 mg/kg/day or 500 mg/kg/day, single dose, i.p.); or 4-PBA (10 mg/kg/day, 200 mg/kg/day, or 1 g/kg/day, single dose, oral gavage) were started.
After 3 months of western diet and treatment, mice were sacrificed and aortas were dissected and fixed in 10% buffered formalin and stained with Oil-Red-O. The amount of atherosclerotic lesion area per full aorta was determine and is expressed as a percent as shown in FIG. 2(a). Mice receiving vehicle (PBS) developed robust atherosclerotic lesions in the aortic arch as well as in the thoracic and abdominal parts of the aorta (0.25%±0.06). […] PBA administration at a dose of 10 mg/kg/day was also found to be effective in reducing formation of atherosclerotic lesions (0.09%±0.03, n=4, p<0.05 vs. control).

[2] = tested on: apoE−/− mice; experiment: Serum total cholesterol levels in apoE−/− mice on western diet; details: 3 months
Experimental: as §1
Blood samples were obtained from the animals described above and serum cholesterol levels were determined by the Piccolo automated device with lipid panel (Abaxis, Calif.).
as §2
(§3) Blood samples were obtained from the animals described above. Lipoprotein profiles analysis was performed by HPLC (FIG. 2b), and total cholesterol levels (FIG. 2c). […] Moreover, the ability to reduce the development of atherosclerotic lesions is not dependent on the ability of a compound to reduce cholesterol.

[3] = tested on: apoE−/− mice; experiment: Lipoprotein profile analysis of serum by HPLC in apoE−/− mice on western diet; details: Example 2, 3 months
Experimental: as §2, §3

Row | Structure (SMILES) | Oil-Red-O staining of aortas ([1]; Example 1, 500 mg/kg/day, single dose, i.p., 3 months of western diet and treatment, vs PBS) | atherosclerotic lesion area per full aorta ([1]; Example 2, 50 mg/kg/day i.p., 3 months, n=3) | atherosclerotic lesion area per full aorta ([1]; Example 2, 500 mg/kg/day i.p., 3 months, n=3) | serum cholesterol levels ([2]; Example 1, 500 mg/kg/day, single dose, i.p., Piccolo lipid panel, FIG. 1, vs PBS) | total cholesterol ([2]; Example 2, 500 mg/kg/day i.p., FIG. 2c) | total cholesterol or specific lipoprotein levels ([3]; 50 mg/kg/day i.p.) | HDL ([3]; 500 mg/kg/day i.p., FIG. 2b) | LDL ([3]; 500 mg/kg/day i.p., FIG. 2b) | VLDL ([3]; 500 mg/kg/day i.p., FIG. 2b) | amount of atherosclerotic lesion relative to control treated animals ([1]; Example 1, about 10 mg/kg/day, similar conditions) | atherosclerotic lesion area per full aorta ([1]; Example 2, 10 mg/kg/day oral gavage, 3 months, n=4) | reduction of formation of atherosclerotic lesions ([1]; Example 2, higher doses (200 mg/kg/day, 1 g/kg/day), oral gavage, 3 months) | total cholesterol or specific lipoprotein levels ([3]; 4-PBA oral gavage (10 mg/kg in FIG. 2))
1 | C[C@H](CCC(=O)NCCS(=O)(=O)O)[C@H]1CC[C@H]2[C@@H]3[C@@H](O)C[C@@H]4C[C@H](O)CC[C@]4(C)[C@H]3CC[C@]12C [TUDCA, tauroursodeoxycholic acid] | PBS treated animals had substantially more Oil-Red-O staining | 0.03%±0.01 | 0.01%±0.01 | significantly (p<0.001) lowered | significant decrease | no significant changes | marked increase | significant decrease | significant decrease | – | – | – | –
2 | O=C(O)CCCc1ccccc1 [PBA, 4-phenyl butyrate] | – | – | – | – | – | – | – | – | – | effective in reducing the amount of atherosclerotic lesion | 0.09%±0.03 | no similar reduction was observed | no significant changes
